Read-outs that look alike come from different tables or passages of the source. Starred links: 1 amine or outer side, 2 acyl side, 3 side chain; linkers in the order of their positions; H or OH if unused. Non-standard residues stand in square brackets, D forms with d. Residues, ends and D or L forms follow the SMILES beside them. Groups on a side chain read outwards from the residue. *: point of attachment. d(γGlu) = O=C(O)[C@@H](CCC(=O)[*:2])N[*:1]; C18 diacid = O=C(O)CCCCCCCCCCCCCCCCC(=O)*; AEEA = NCCOCCOCC(=O)O; Aib = CC(C)(N)C(=O)O
Target: hGLP-1R (Homo sapiens, UniProt P43220)
Sequence (P43220 24-463): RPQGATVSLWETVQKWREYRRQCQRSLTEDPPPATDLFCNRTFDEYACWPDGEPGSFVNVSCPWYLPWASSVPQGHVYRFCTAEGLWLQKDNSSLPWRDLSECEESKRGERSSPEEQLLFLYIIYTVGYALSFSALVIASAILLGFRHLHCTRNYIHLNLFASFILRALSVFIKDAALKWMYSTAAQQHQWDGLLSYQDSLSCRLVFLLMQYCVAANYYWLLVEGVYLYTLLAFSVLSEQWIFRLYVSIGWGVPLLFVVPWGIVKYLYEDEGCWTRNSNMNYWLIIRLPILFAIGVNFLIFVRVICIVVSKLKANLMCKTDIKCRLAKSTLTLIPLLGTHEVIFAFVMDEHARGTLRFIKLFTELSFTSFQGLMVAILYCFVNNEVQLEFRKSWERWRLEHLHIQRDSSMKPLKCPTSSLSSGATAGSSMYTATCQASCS
Test: Cell agonistic activity at GLP-1 receptor (Example 7)
Assay type: cell-based

Row | SMILES | EC50 [nM] | EC50 (read-out: hGLP-1R EC50) [nM]
1 | CC[C@H](C)[C@H](NC(=O)[C@H](CO)NC(=O)[C@H](Cc1ccc(O)cc1)NC(=O)[C@H](CC(=O)O)NC(=O)[C@H](CO)NC(=O)[C@@H](NC(=O)[C@H](Cc1ccccc1)NC(=O)[C@@H](NC(=O)CNC(=O)[C@H](CCC(=O)O)NC(=O)C(C)(C)NC(=O)[C@@H](N)Cc1ccc(O)cc1)[C@@H](C)O)[C@@H](C)CC)C(=O)N[C@@H](C)C(=O)N[C@@H](CC(C)C)C(=O)N[C@@H](CC(=O)O)C(=O)N[C@@H](CCCNC(=N)N)C(=O)N[C@@H](CC(C)C)C(=O)N[C@@H](Cc1c[nH]cn1)C(=O)N[C@@H](CCC(N)=O)C(=O)N[C@@H](CCC(=O)O)C(=O)N[C@@H](CC(=O)O)C(=O)N[C@@H](Cc1ccccc1)C(=O)N[C@H](C(=O)N[C@@H](CCCCN)C(=O)N[C@@H](Cc1c[nH]c2ccccc12)C(=O)N[C@@H](CC(C)C)C(=O)N[C@@H](CC(C)C)C(=O)N[C@@H](C)C(=O)N[C@@H](CCC(N)=O)C(=O)N[C@@H](CCCNC(=N)N)C(=O)NCC(=O)O)C(C)C [Sequence 15] (H-Y[Aib]EGTFISDYSIALDRLHQEDFVKWLLAQRG-OH; N-terminus and C-terminus assumed) | > 0.1 | 
2 | CC[C@H](C)[C@H](NC(=O)[C@H](CO)NC(=O)[C@H](Cc1ccc(O)cc1)NC(=O)[C@H](CC(=O)O)NC(=O)[C@H](CO)NC(=O)[C@@H](NC(=O)[C@H](Cc1ccccc1)NC(=O)[C@@H](NC(=O)CNC(=O)[C@H](CCC(=O)O)NC(=O)C(C)(C)NC(=O)[C@@H](N)Cc1ccc(O)cc1)[C@@H](C)O)[C@@H](C)CC)C(=O)N[C@@H](C)C(=O)N[C@@H](CC(C)C)C(=O)N[C@@H](CC(=O)O)C(=O)N[C@@H](CCCCN)C(=O)N[C@H](C(=O)N[C@@H](Cc1c[nH]cn1)C(=O)N[C@@H](CCC(N)=O)C(=O)N[C@@H](CCC(=O)O)C(=O)N[C@@H](CC(=O)O)C(=O)N[C@@H](Cc1ccccc1)C(=O)N[C@H](C(=O)N[C@@H](CCCCN)C(=O)N[C@@H](Cc1c[nH]c2ccccc12)C(=O)N[C@@H](CC(C)C)C(=O)N[C@@H](CC(C)C)C(=O)N[C@@H](C)C(=O)N[C@@H](CCC(N)=O)C(=O)N[C@@H](CCCCN)C(=O)NCC(=O)O)C(C)C)[C@@H](C)CC [Sequence 3] (H-Y[Aib]EGTFISDYSIALDKIHQEDFVKWLLAQKG-OH; N-terminus and C-terminus assumed) | > 0.1 | 
3 | CC[C@H](C)[C@H](NC(=O)[C@H](CO)NC(=O)[C@H](Cc1ccc(O)cc1)NC(=O)[C@H](CC(=O)O)NC(=O)[C@H](CO)NC(=O)[C@@H](NC(=O)[C@H](Cc1ccccc1)NC(=O)[C@@H](NC(=O)CNC(=O)[C@H](CCC(=O)O)NC(=O)C(C)(C)NC(=O)[C@@H](N)Cc1ccc(O)cc1)[C@@H](C)O)[C@@H](C)CC)C(=O)N[C@@H](C)C(=O)N[C@@H](CC(C)C)C(=O)N[C@@H](CC(=O)O)C(=O)N[C@@H](CCCCN)C(=O)N[C@@H](CC(C)C)C(=O)N[C@@H](Cc1c[nH]cn1)C(=O)N[C@@H](CCC(N)=O)C(=O)N[C@@H](CCC(=O)O)C(=O)N[C@@H](CC(=O)O)C(=O)N[C@@H](Cc1ccccc1)C(=O)N[C@H](C(=O)N[C@@H](CC(N)=O)C(=O)N[C@@H](Cc1c[nH]c2ccccc12)C(=O)N[C@@H](CC(C)C)C(=O)N[C@@H](CC(C)C)C(=O)N[C@@H](C)C(=O)N[C@@H](CCC(N)=O)C(=O)N[C@@H](CCCNC(=N)N)C(=O)NCC(=O)O)C(C)C [Sequence 10] (H-Y[Aib]EGTFISDYSIALDKLHQEDFVNWLLAQRG-OH; N-terminus and C-terminus assumed) | > 0.1 | 
4 | CC[C@H](C)[C@H](NC(=O)[C@H](CO)NC(=O)[C@H](Cc1ccc(O)cc1)NC(=O)[C@H](CC(=O)O)NC(=O)[C@H](CO)NC(=O)[C@@H](NC(=O)[C@H](Cc1ccccc1)NC(=O)[C@@H](NC(=O)CNC(=O)[C@H](CCC(=O)O)NC(=O)C(C)(C)NC(=O)[C@@H](N)Cc1ccc(O)cc1)[C@@H](C)O)[C@@H](C)CC)C(=O)N[C@@H](C)C(=O)N[C@@H](CC(C)C)C(=O)N[C@@H](CC(=O)O)C(=O)N[C@@H](CCCNC(=N)N)C(=O)N[C@@H](CC(C)C)C(=O)N[C@@H](Cc1c[nH]cn1)C(=O)N[C@@H](CCC(N)=O)C(=O)N[C@@H](CCC(N)=O)C(=O)N[C@@H](CC(=O)O)C(=O)N[C@@H](Cc1ccccc1)C(=O)N[C@H](C(=O)N[C@@H](CC(N)=O)C(=O)N[C@@H](Cc1c[nH]c2ccccc12)C(=O)N[C@@H](CC(C)C)C(=O)N[C@@H](CC(C)C)C(=O)N[C@@H](C)C(=O)N[C@@H](CCC(N)=O)C(=O)N[C@@H](CCCCN)C(=O)NCC(=O)O)C(C)C [Sequence 18] (H-Y[Aib]EGTFISDYSIALDRLHQQDFVNWLLAQKG-OH; N-terminus and C-terminus assumed) | > 0.1 | 
5 | CC[C@H](C)[C@H](NC(=O)[C@H](CO)NC(=O)[C@H](Cc1ccc(O)cc1)NC(=O)[C@H](CC(=O)O)NC(=O)[C@H](CO)NC(=O)[C@@H](NC(=O)[C@H](Cc1ccccc1)NC(=O)[C@@H](NC(=O)CNC(=O)[C@H](CCC(=O)O)NC(=O)C(C)(C)NC(=O)[C@@H](N)Cc1ccc(O)cc1)[C@@H](C)O)[C@@H](C)CC)C(=O)N[C@@H](C)C(=O)N[C@@H](CC(C)C)C(=O)N[C@@H](CC(=O)O)C(=O)N[C@@H](CCCCN)C(=O)N[C@H](C(=O)N[C@@H](Cc1c[nH]cn1)C(=O)N[C@@H](CCC(N)=O)C(=O)N[C@@H](CCC(N)=O)C(=O)N[C@@H](CC(=O)O)C(=O)N[C@@H](Cc1ccccc1)C(=O)N[C@H](C(=O)N[C@@H](CC(N)=O)C(=O)N[C@@H](Cc1c[nH]c2ccccc12)C(=O)N[C@@H](CC(C)C)C(=O)N[C@@H](CC(C)C)C(=O)N[C@@H](C)C(=O)N[C@@H](CCC(N)=O)C(=O)N[C@@H](CCCNC(=N)N)C(=O)NCC(=O)O)C(C)C)[C@@H](C)CC [Sequence 7] (H-Y[Aib]EGTFISDYSIALDKIHQQDFVNWLLAQRG-OH; N-terminus and C-terminus assumed) | > 0.1 | 
6 | CC[C@H](C)[C@H](NC(=O)[C@H](CO)NC(=O)[C@H](Cc1ccc(O)cc1)NC(=O)[C@H](CC(=O)O)NC(=O)[C@H](CO)NC(=O)[C@@H](NC(=O)[C@H](Cc1ccccc1)NC(=O)[C@@H](NC(=O)CNC(=O)[C@H](CCC(=O)O)NC(=O)C(C)(C)NC(=O)[C@@H](N)Cc1ccc(O)cc1)[C@@H](C)O)[C@@H](C)CC)C(=O)N[C@@H](C)C(=O)N[C@@H](CC(C)C)C(=O)N[C@@H](CC(=O)O)C(=O)N[C@@H](CCCCNC(=O)COCCOCCNC(=O)COCCOCCNC(=O)CC[C@@H](NC(=O)CCCCCCCCCCCCCCCCC(=O)O)C(=O)O)C(=O)N[C@@H](CC(C)C)C(=O)N[C@@H](Cc1c[nH]cn1)C(=O)N[C@@H](CCC(N)=O)C(=O)N[C@@H](CCC(=O)O)C(=O)N[C@@H](CC(=O)O)C(=O)N[C@@H](Cc1ccccc1)C(=O)N[C@H](C(=O)N[C@@H](CC(N)=O)C(=O)N[C@@H](Cc1c[nH]c2ccccc12)C(=O)N[C@@H](CC(C)C)C(=O)N[C@@H](CC(C)C)C(=O)N[C@@H](C)C(=O)N[C@@H](CCC(N)=O)C(=O)N[C@@H](CCCNC(=N)N)C(=O)NCC(=O)O)C(C)C [Peptide 10, N-{ε-16}-18-{[(23R)-23-carboxyl-2,11,20-trioxo-10,19-diaza-4,7,13,16-tetraoxatricosyl-23-yl]amino}-18-oxooctadecanoic acid acetyl-[Aib2, L14, L17, E20, R30]-hGIP(1-31)] (H-Y[Aib]EGTFISDYSIALDK([AEEA-AEEA-d(γGlu)-C18 diacid])LHQEDFVNWLLAQRG-OH) |  | > 0.1
7 | CC[C@H](C)[C@H](NC(=O)[C@H](CO)NC(=O)[C@H](Cc1ccc(O)cc1)NC(=O)[C@H](CC(=O)O)NC(=O)[C@H](CO)NC(=O)[C@@H](NC(=O)[C@H](Cc1ccccc1)NC(=O)[C@@H](NC(=O)CNC(=O)[C@H](CCC(=O)O)NC(=O)C(C)(C)NC(=O)[C@@H](N)Cc1ccc(O)cc1)[C@@H](C)O)[C@@H](C)CC)C(=O)N[C@@H](C)C(=O)N[C@@H](CC(C)C)C(=O)N[C@@H](CC(=O)O)C(=O)N[C@@H](CCC(=O)O)C(=O)N[C@@H](CC(C)C)C(=O)N[C@@H](Cc1c[nH]cn1)C(=O)N[C@@H](CCC(N)=O)C(=O)N[C@@H](CCCCN)C(=O)N[C@@H](CC(=O)O)C(=O)N[C@@H](Cc1ccccc1)C(=O)N[C@H](C(=O)N[C@@H](CC(N)=O)C(=O)N[C@@H](Cc1c[nH]c2ccccc12)C(=O)N[C@@H](CC(C)C)C(=O)N[C@@H](CC(C)C)C(=O)N[C@@H](C)C(=O)N[C@@H](CCC(N)=O)C(=O)N[C@@H](CCCNC(=N)N)C(=O)NCC(=O)O)C(C)C [Sequence 6] (H-Y[Aib]EGTFISDYSIALDELHQKDFVNWLLAQRG-OH; N-terminus and C-terminus assumed) | > 0.1 | 
8 | CC[C@H](C)[C@H](NC(=O)[C@H](CO)NC(=O)[C@H](Cc1ccc(O)cc1)NC(=O)[C@H](CC(=O)O)NC(=O)[C@H](CO)NC(=O)[C@@H](NC(=O)[C@H](Cc1ccccc1)NC(=O)[C@@H](NC(=O)CNC(=O)[C@H](CCC(=O)O)NC(=O)C(C)(C)NC(=O)[C@@H](N)Cc1ccc(O)cc1)[C@@H](C)O)[C@@H](C)CC)C(=O)N[C@@H](C)C(=O)N[C@@H](CC(C)C)C(=O)N[C@@H](CC(=O)O)C(=O)N[C@@H](CCCCN)C(=O)N[C@@H](CC(C)C)C(=O)N[C@@H](Cc1c[nH]cn1)C(=O)N[C@@H](CCC(N)=O)C(=O)N[C@@H](CCC(N)=O)C(=O)N[C@@H](CC(=O)O)C(=O)N[C@@H](Cc1ccccc1)C(=O)N[C@H](C(=O)N[C@@H](CC(N)=O)C(=O)N[C@@H](Cc1c[nH]c2ccccc12)C(=O)N[C@@H](CC(C)C)C(=O)N[C@@H](CC(C)C)C(=O)N[C@@H](C)C(=O)N[C@@H](CCC(N)=O)C(=O)N[C@@H](CCCNC(=N)N)C(=O)NCC(=O)O)C(C)C [Sequence 8] (H-Y[Aib]EGTFISDYSIALDKLHQQDFVNWLLAQRG-OH; N-terminus and C-terminus assumed) | > 0.1 | 
9 | CC[C@H](C)[C@H](NC(=O)[C@H](CO)NC(=O)[C@H](Cc1ccc(O)cc1)NC(=O)[C@H](CC(=O)O)NC(=O)[C@H](CO)NC(=O)[C@@H](NC(=O)[C@H](Cc1ccccc1)NC(=O)[C@@H](NC(=O)CNC(=O)[C@H](CCC(=O)O)NC(=O)C(C)(C)NC(=O)[C@@H](N)Cc1ccc(O)cc1)[C@@H](C)O)[C@@H](C)CC)C(=O)N[C@@H](C)C(=O)N[C@@H](CC(C)C)C(=O)N[C@@H](CC(=O)O)C(=O)N[C@@H](CCCNC(=N)N)C(=O)N[C@H](C(=O)N[C@@H](Cc1c[nH]cn1)C(=O)N[C@@H](CCC(N)=O)C(=O)N[C@@H](CCC(N)=O)C(=O)N[C@@H](CC(=O)O)C(=O)N[C@@H](Cc1ccccc1)C(=O)N[C@H](C(=O)N[C@@H](CC(N)=O)C(=O)N[C@@H](Cc1c[nH]c2ccccc12)C(=O)N[C@@H](CC(C)C)C(=O)N[C@@H](CC(C)C)C(=O)N[C@@H](C)C(=O)N[C@@H](CCC(N)=O)C(=O)N[C@@H](CCCCN)C(=O)NCC(=O)O)C(C)C)[C@@H](C)CC [Sequence 14] (H-Y[Aib]EGTFISDYSIALDRIHQQDFVNWLLAQKG-OH; N-terminus and C-terminus assumed) | > 0.1 | 
